Assay results as given in paper PMC11141866, “Pyrimidine depletion enhances targeted and immune therapy combinations in acute myeloid leukemia” (JCI Insight, 2024).
≈ marks a conversion by molar mass, not a printed value. Where “and” joins values, the source holds several entries; their conditions need not be identical. Equal values may be shown once. Read-outs that look alike come from different tables or passages of the source.

What was measured:
[1] = tested on: MOLM-13 AML cell line; assay: In vitro uridine rescue assay (MTS, Combenefit); type: cell-based, human; conditions: MOLM-13, exogenous uridine, n=3
Description: In vitro analysis of the antagonistic activity of uridine to HOSU-53 efficacy on MOLM-13 cells was done using MTS proliferation assay with increasing concentrations of uridine, HOSU-53, or the combination. Three biological replicates were analyzed using Combenefit software with mathematical models for highest single agent ([48]).

[2] = tested on: primary AML samples; assay: MTS proliferation assay, primary AML samples; type: cell-based, human; set-up: MTS proliferation data value: unit not given here; conditions: 96 h; for MTS proliferation data value: replicates; for IC50: Homo sapiens
Description: A total of 10,000–20,000 cells from different AML lines or 50,000–75,000 cells of primary AML blasts were treated in a 96-well plate for 72 hours or 96 hours at 37°C, 5% CO2. CellTiter 96 Aqueous MTS reagent (Promega) was added to cells followed by a 3-hour incubation at 37°C, 5% CO2. The absorbance was measured at 490 nm using DTX 880 plate reader, and the IC50 was calculated using GraphPad Prism.

[3] = tested on: THP-1 cells; assay: E. coli phagocytosis assay; type: cell-based, human; conditions: THP-1 treated 6 days
Description: The THP-1 AML cell line was treated for 6 days, then washed and cocultured with pHrodo Deep Red E. coli BioParticles (P35360, Invitrogen) per the manufacturer’s protocol. Ten-minute pretreatment with 10 μM of cytochalasin D (actin polymerization inhibitor) was used as a negative control for phagocytosis. After 90 minutes of incubation with E. coli, cells were washed and run on the Cytek Aurora spectral flow cytometer.

[4] = tested on: MOLM-13 disseminated CDX AML model; assay: MOLM-13 CDX synergy with anti-CD47 immunotherapy; type: in vivo, NCG mice; conditions: event 1 = death, 0 = censored
Description: Male 8- to 12-week-old NCG mice were engrafted with […] cells via tail vein i.v. injection. Four days after engraftment (day 1 of treatment), mice (n = 10/arm) were randomized to receive p.o. qd and i.p. vehicle, daily oral 4 mg/kg or 10 mg/kg HOSU-53, 0.5 mg/animal i.p. anti-CD47 B6H12 (BioXCell) daily for 21 days, or HOSU-53 combination with anti-CD47. At day 80, half of the surviving mice in the combination cohorts were euthanized for bone marrow collection, leaving the remaining mice in the group on study without receiving any treatment. […] Figure 8, A and B, share the same vehicle and anti-CD47 cohorts.

[5] = tested on: primary AML samples; assay: Flow cytometry CD38 surface expression, primary AML samples; type: cell-based, human; conditions: for CD38 MFI: 50nM
Description: Cells were thawed in 50% FBS RPMI and then cultured in StemSpan (StemCell Technologies) media supplemented with human FLT3L, SCF, GM-CSF, G-CSF, IL-3, IL-6, TPO, and EPO cytokines for 7 days (LTC).
After 72 hours or 7 days of treatment of DHODHi, cells were collected and washed with PBS, blocked with human Fc block (BioLegend), and stained with antibodies for 30 minutes on ice. Antibodies were washed off and cells resuspended in FACS buffer (2% FBS, 2 mM NaN3, Dulbecco’s PBS) for analysis using BD LSRFortessa or Cytek Aurora spectral flow cytometer. Live/dead exclusion was done using LIVE/DEAD Fixable Near-IR (Invitrogen). All antibodies were purchased from BioLegend except CD47, which was purchased from BD Biosciences: CD11b clone M1/70, CD38 clone HIT2, CD14 clone M5E2, CD47 clone B6H12, CD33 clone WM53, CD3 clone UCHT1, CD19 clone HIB19, and CD45 clone HI30.

[6] = Thermodynamic solubility; type: physicochemical; conditions: thermodynamic from solid
Description: (§1) Supplement jciinsight-9-173646-s083.xlsx, sheet "Supplemental Table S.2." | column: HOSU-53

[7] = Mini-Ames Mutagenicity Test; conditions: CHO-WBL cells with and without S9 activation (so in the source)
Description: as §1

[8] = biological target: HSA (Homo sapiens, UniProt P02768); assay: Protein binding, HSA; type: in vitro ADME; conditions: 4% HSA
Description: as §1

[9] = In vivo p.o. PK in dog; conditions: po
Description: as §1

Sequence of HSA (P02768 25-609): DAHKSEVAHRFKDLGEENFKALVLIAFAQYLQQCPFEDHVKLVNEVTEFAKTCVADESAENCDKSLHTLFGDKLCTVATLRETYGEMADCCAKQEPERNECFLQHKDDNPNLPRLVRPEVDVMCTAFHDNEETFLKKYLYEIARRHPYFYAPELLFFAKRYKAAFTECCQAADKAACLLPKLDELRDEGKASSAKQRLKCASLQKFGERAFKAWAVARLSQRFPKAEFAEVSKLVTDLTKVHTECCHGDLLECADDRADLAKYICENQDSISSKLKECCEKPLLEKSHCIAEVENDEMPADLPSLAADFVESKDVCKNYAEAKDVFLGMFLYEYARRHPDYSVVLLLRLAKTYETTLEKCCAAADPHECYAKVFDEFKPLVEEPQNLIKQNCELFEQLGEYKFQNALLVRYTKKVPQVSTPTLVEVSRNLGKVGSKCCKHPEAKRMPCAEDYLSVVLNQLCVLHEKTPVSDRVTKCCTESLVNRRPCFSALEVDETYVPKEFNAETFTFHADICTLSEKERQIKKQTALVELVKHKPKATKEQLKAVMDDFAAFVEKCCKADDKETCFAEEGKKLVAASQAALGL

## CCCCOc1cccc(-c2ccc(-c3cc(C(=O)O)c4cc(F)ccc4n3)cc2)c1 [HOSU-53]
[1]
  uridine concentration at which metabolic resistance to HOSU-53 activity emerges: above 25 μM
[2]; 0.25 µM, Pt.1
  MTS proliferation data value: 18.4884 and 20.0581 and 18.3139
[2]; 0.25 µM, Pt.2
  MTS proliferation data value: 32.3851 (2×) and 33.2604
[2]; 0.25 µM, Pt.3
  MTS proliferation data value: 55.8692 and 53.1947
[2]; 0.25 µM, Pt.4
  MTS proliferation data value: 65.8976 and 67.7546 and 63.7029
[2]; 0.25 µM, Pt.5
  MTS proliferation data value: 79.2706 and 80.6142 and 76.9674
[2]; 0.25 µM, Pt.6
  MTS proliferation data value: 33.7613 and 67.7492 and 73.4139
[2]; 0.25 µM, Pt.7
  MTS proliferation data value: 62.3298 and 55.7489 and 55.295
[2]; 0.25 µM, Pt.8
  MTS proliferation data value: 107.765 and 102.823 and 101.765
[2]; 0.5 µM, Pt.1
  MTS proliferation data value: 16.3954 and 17.2674 and 16.2209
[2]; 0.5 µM, Pt.2
  MTS proliferation data value: 27.5711 and 28.884 and 28.2276
[2]; 0.5 µM, Pt.3
  MTS proliferation data value: 49.3314 and 49.0342 and 46.211
[2]; 0.5 µM, Pt.4
  MTS proliferation data value: 54.2487 and 57.2876 and 57.4564
[2]; 0.5 µM, Pt.5
  MTS proliferation data value: 73.1286 and 69.0979 and 69.2898
[2]; 0.5 µM, Pt.6
  MTS proliferation data value: 55.9668 and 65.2568 and 57.5529
[2]; 0.5 µM, Pt.7
  MTS proliferation data value: 44.4024 and 40.0908 and 37.1407
[2]; 0.5 µM, Pt.8
  MTS proliferation data value: 86.9412 and 90.8235 and 88.3529
[2]; 0.75 µM, Pt.1
  MTS proliferation data value: 15 and 14.4767 and 15.1744
[2]; 0.75 µM, Pt.2
  MTS proliferation data value: 23.4136 and 22.1007 and 24.5077
[2]; 0.75 µM, Pt.3
  MTS proliferation data value: 39.8217 and 43.685 and 41.9019
[2]; 0.75 µM, Pt.4
  MTS proliferation data value: 52.2229 (2×) and 53.7423
[2]; 0.75 µM, Pt.5
  MTS proliferation data value: 64.4914 and 65.8349 (2×)
[2]; 0.75 µM, Pt.6
  MTS proliferation data value: 26.5106 and 39.426 and 36.7069
[2]; 0.75 µM, Pt.7
  MTS proliferation data value: 37.1407 and 39.8638 and 33.2829
[2]; 0.75 µM, Pt.8
  MTS proliferation data value: 77.0588 (2×) and 79.1765
[2]; 1 µM, Pt.1
  MTS proliferation data value: 14.4767 and 15.5233 and 13.7791
[2]; 1 µM, Pt.2
  MTS proliferation data value: 21.663 (2×) and 22.9759
[2]; 1 µM, Pt.3
  MTS proliferation data value: 40.1189 and 38.633 and 39.5245
[2]; 1 µM, Pt.4
  MTS proliferation data value: 47.327 and 51.7164 and 51.5476
[2]; 1 µM, Pt.5
  MTS proliferation data value: 64.6833 and 63.5317 and 66.6027
[2]; 1 µM, Pt.6
  MTS proliferation data value: 19.0332 and 30.5891 and 31.9486
[2]; 1 µM, Pt.7
  MTS proliferation data value: 33.9637 and 32.6021 and 29.879
[2]; 1 µM, Pt.8
  MTS proliferation data value: 72.1176 and 72.8235 (2×)
[2]; 5 µM, Pt.1
  MTS proliferation data value: 14.3023
[2]; 5 µM, Pt.4
  MTS proliferation data value: 43.444 and 45.8075 and 44.1193
[2]; 5 µM, Pt.8
  MTS proliferation data value: 55.5294
[2]; n = 8 samples, 96-hour treatment, read-out: median IC50 in primary AML patient samples
  IC50: 120 nM
[2]; read-out: IC50 [95% CI], Pt. 1, 96-hour treatment
  IC50: 23 nM
[2]; read-out: IC50 [95% CI], Pt. 2, 96-hour treatment
  IC50: 103 nM
[2]; read-out: IC50 [95% CI], Pt. 3, 96-hour treatment
  IC50: 85 nM
[2]; read-out: IC50 [95% CI], Pt. 4, 96-hour treatment
  IC50: 112 nM
[2]; read-out: IC50 [95% CI], Pt. 5, 96-hour treatment
  IC50: 129 nM
[2]; read-out: IC50 [95% CI], Pt. 6, 96-hour treatment
  IC50: 155 nM
[2]; read-out: IC50 [95% CI], Pt. 7, 96-hour treatment
  IC50: 169 nM
[2]; read-out: IC50 [95% CI], Pt. 8, 96-hour treatment
  IC50: 584 nM
[3]
  phagocytosis of E. coli: enhanced ability to phagocytose E. coli
[4]; 4 mg/kg HOSU-53
  Days of Study (survival, per animal): 39 days and 46 days and 43 days and 42 days and 32 days and 40 days and 41 days
[4]; 10 mg/kg HOSU-53
  Days of Study (survival, per animal): 38 days and 50 days and 49 days and 51 days and 53 days and 52 days
[5]; Pt.12, DMSO 824.62
  CD38 MFI: 1062.2
[5]; Pt.13, DMSO 803.93
  CD38 MFI: 707.33
[5]; Pt.14, DMSO 15.61
  CD38 MFI: 21.18
[5]; Pt.15, DMSO 168
  CD38 MFI: 782.96
[5]; Pt.16, DMSO 274.9
  CD38 MFI: 277.67
[5]; Pt.17, DMSO 1637.55
  CD38 MFI: 2440.33
[5]; Pt.18, DMSO 74.26
  CD38 MFI: 85.51
[5]; Pt.19, DMSO 997.1
  CD38 MFI: 2400.6
[5]; Pt.20, DMSO 193.57
  CD38 MFI: 291.28
[5]; Pt.2, DMSO 150.75
  CD38 MFI: 197
[5]; primary AML samples treated in vitro
  CD38 surface expression: variable increase
[6]; FaSSIF, heading: Thermodynamic solubility FaSSIF
  solubility thermodynamic: 43 µM (≈ 17.9 µg/mL)
[6]; FeSSIF, heading: Thermodynamic solubility FeSSIF
  solubility thermodynamic: 373 µM (≈ 155 µg/mL)
[6]; SGF, simulated gastric fluid, heading: Thermodynamic solubility SGF
  solubility thermodynamic: < 1.56 µM
[7]
  Mini-Ames Mutagenicity Test: Negative
[8]
  fraction unbound: < 0.01
[9]; read-out: in vivo p.o. bioavailability (F)
  bioavailability: 47%
[9]; read-out: in vivo p.o. t1/2 (converted)
  half-life: 8.4 h
